Source: the NIST ThermoML archive (doi:10.1016/j.fluid.2007.06.007)

Assay: excess molar enthalpy (molar enthalpy of mixing); xn = mol fraction of the nth substance listed
Settings: 101 kPa, Liquid, Calvet calorimetry

CCCCn1cc[n+](C)c1.F[P-](F)(F)(F)(F)F [1-butyl-3-methylimidazolium hexafluorophosphate] + CCCO
Settings | excess molar enthalpy [kcal/mol]
288.15 K, x2 = 0.000953 | 0.00219
288.15 K, x2 = 0.001891 | 0.00413
288.15 K, x2 = 0.002836 | 0.00617
288.15 K, x2 = 0.003785 | 0.00824
288.15 K, x2 = 0.004734 | 0.0102
288.15 K, x2 = 0.005679 | 0.0123
288.15 K, x2 = 0.006625 | 0.0142
288.15 K, x2 = 0.007571 | 0.0162
298.15 K, x2 = 0.000901 | 0.0021
298.15 K, x2 = 0.001808 | 0.00414
298.15 K, x2 = 0.002711 | 0.00615
298.15 K, x2 = 0.003619 | 0.00808
298.15 K, x2 = 0.004527 | 0.00997
298.15 K, x2 = 0.005431 | 0.0118
298.15 K, x2 = 0.006336 | 0.0136
298.15 K, x2 = 0.007241 | 0.0155
308.15 K, x2 = 0.000957 | 0.00225
308.15 K, x2 = 0.001911 | 0.00429
308.15 K, x2 = 0.002864 | 0.00631
308.15 K, x2 = 0.003815 | 0.00832
308.15 K, x2 = 0.004765 | 0.0103
308.15 K, x2 = 0.005712 | 0.0123
308.15 K, x2 = 0.006658 | 0.0142
308.15 K, x2 = 0.007602 | 0.0162
318.15 K, x2 = 0.001129 | 0.00278
318.15 K, x2 = 0.002265 | 0.00556
318.15 K, x2 = 0.003396 | 0.00829
318.15 K, x2 = 0.004532 | 0.0109
318.15 K, x2 = 0.005668 | 0.0136
318.15 K, x2 = 0.006798 | 0.0163
318.15 K, x2 = 0.007929 | 0.019
318.15 K, x2 = 0.009059 | 0.0215

CCCCn1cc[n+](C)c1.F[P-](F)(F)(F)(F)F [1-butyl-3-methylimidazolium hexafluorophosphate] + CCO
Settings | excess molar enthalpy [kcal/mol]
288.15 K, x2 = 0.001144 | 0.00208
288.15 K, x2 = 0.002285 | 0.00415
288.15 K, x2 = 0.003423 | 0.00629
288.15 K, x2 = 0.004559 | 0.00822
288.15 K, x2 = 0.005692 | 0.0104
288.15 K, x2 = 0.006823 | 0.0126
288.15 K, x2 = 0.007951 | 0.0147
288.15 K, x2 = 0.009076 | 0.0168
298.15 K, x2 = 0.001112 | 0.00206
298.15 K, x2 = 0.002231 | 0.00395
298.15 K, x2 = 0.003346 | 0.00578
298.15 K, x2 = 0.004465 | 0.00775
298.15 K, x2 = 0.005584 | 0.00937
298.15 K, x2 = 0.006698 | 0.0112
298.15 K, x2 = 0.007812 | 0.0132
298.15 K, x2 = 0.008925 | 0.015
308.15 K, x2 = 0.00114 | 0.00243
308.15 K, x2 = 0.002261 | 0.00429
308.15 K, x2 = 0.00339 | 0.00632
308.15 K, x2 = 0.004524 | 0.00838
308.15 K, x2 = 0.005658 | 0.0101
308.15 K, x2 = 0.006787 | 0.0119
308.15 K, x2 = 0.007915 | 0.0139
308.15 K, x2 = 0.009044 | 0.0158
318.15 K, x2 = 0.001144 | 0.00253
318.15 K, x2 = 0.002294 | 0.00499
318.15 K, x2 = 0.00344 | 0.00687
318.15 K, x2 = 0.004591 | 0.00876
318.15 K, x2 = 0.005741 | 0.011
318.15 K, x2 = 0.006886 | 0.0133
318.15 K, x2 = 0.008031 | 0.0153
318.15 K, x2 = 0.009176 | 0.0174

CCO [ethanol] + O
298.15 K
Settings | excess molar enthalpy [kcal/mol]
x1 = 0.000102 | -0.000249
x1 = 0.000206 | -0.000497
x1 = 0.000308 | -0.000746
x1 = 0.000412 | -0.000992
x1 = 0.000516 | -0.00124
x1 = 0.000619 | -0.00148
x1 = 0.000723 | -0.00173
x1 = 0.000827 | -0.00197
x1 = 0.000931 | -0.00222
x1 = 0.001034 | -0.00246
x1 = 0.001138 | -0.00271
x1 = 0.001241 | -0.00295
x1 = 0.001345 | -0.00319
x1 = 0.001448 | -0.00343
x1 = 0.001551 | -0.00367
x2 = 0.001021 | -0.000507
x2 = 0.00205 | -0.00101
x2 = 0.003074 | -0.00151
x2 = 0.004102 | -0.002
x2 = 0.00513 | -0.00248
x2 = 0.006155 | -0.00296
x2 = 0.007179 | -0.00343
x2 = 0.008203 | -0.0039
x2 = 0.009225 | -0.00437
x2 = 0.01024 | -0.00484
x2 = 0.01125 | -0.00529
x2 = 0.01226 | -0.00575
x2 = 0.01328 | -0.00619
x2 = 0.01428 | -0.00664
x2 = 0.01529 | -0.00708

CCCCn1cc[n+](C)c1.F[P-](F)(F)(F)(F)F [1-butyl-3-methylimidazolium hexafluorophosphate] + CC(C)O
Settings | excess molar enthalpy [kcal/mol]
288.15 K, x2 = 0.000943 | 0.00213
288.15 K, x2 = 0.001871 | 0.00426
288.15 K, x2 = 0.002806 | 0.00637
288.15 K, x2 = 0.003745 | 0.00844
288.15 K, x2 = 0.004685 | 0.0106
288.15 K, x2 = 0.00562 | 0.0126
288.15 K, x2 = 0.006556 | 0.0146
288.15 K, x2 = 0.007492 | 0.0167
298.15 K, x2 = 0.000909 | 0.00209
298.15 K, x2 = 0.001826 | 0.00417
298.15 K, x2 = 0.002738 | 0.0062
298.15 K, x2 = 0.003654 | 0.00821
298.15 K, x2 = 0.004571 | 0.0102
298.15 K, x2 = 0.005484 | 0.0123
298.15 K, x2 = 0.006398 | 0.0143
298.15 K, x2 = 0.007311 | 0.0163
308.15 K, x2 = 0.000919 | 0.00219
308.15 K, x2 = 0.001837 | 0.00421
308.15 K, x2 = 0.002753 | 0.00609
308.15 K, x2 = 0.003667 | 0.00793
308.15 K, x2 = 0.004579 | 0.00975
308.15 K, x2 = 0.00549 | 0.0115
308.15 K, x2 = 0.006399 | 0.0132
308.15 K, x2 = 0.007307 | 0.0149
318.15 K, x2 = 0.000994 | 0.00241
318.15 K, x2 = 0.00201 | 0.00473
318.15 K, x2 = 0.003012 | 0.00688
318.15 K, x2 = 0.004011 | 0.00907
318.15 K, x2 = 0.005009 | 0.0111
318.15 K, x2 = 0.006005 | 0.0133
318.15 K, x2 = 0.006999 | 0.0154
318.15 K, x2 = 0.007991 | 0.0172

CCCCn1cc[n+](C)c1.F[P-](F)(F)(F)(F)F [1-butyl-3-methylimidazolium hexafluorophosphate] + CCCCO
Settings | excess molar enthalpy [kcal/mol]
288.15 K, x2 = 0.000787 | 0.00199
288.15 K, x2 = 0.001572 | 0.00391
288.15 K, x2 = 0.002356 | 0.00586
288.15 K, x2 = 0.003139 | 0.00774
288.15 K, x2 = 0.003921 | 0.00965
288.15 K, x2 = 0.004701 | 0.0115
288.15 K, x2 = 0.00548 | 0.0134
288.15 K, x2 = 0.006258 | 0.0153
298.15 K, x2 = 0.000761 | 0.00205
298.15 K, x2 = 0.00152 | 0.00402
298.15 K, x2 = 0.002279 | 0.00604
298.15 K, x2 = 0.003036 | 0.00798
298.15 K, x2 = 0.003792 | 0.00989
298.15 K, x2 = 0.004547 | 0.0117
298.15 K, x2 = 0.005301 | 0.0136
298.15 K, x2 = 0.006053 | 0.0154
308.15 K, x2 = 0.000768 | 0.00202
308.15 K, x2 = 0.001541 | 0.00387
308.15 K, x2 = 0.002312 | 0.00562
308.15 K, x2 = 0.003086 | 0.00739
308.15 K, x2 = 0.003861 | 0.0092
308.15 K, x2 = 0.004632 | 0.011
308.15 K, x2 = 0.005405 | 0.0129
308.15 K, x2 = 0.006177 | 0.0147
318.15 K, x2 = 0.000821 | 0.00228
318.15 K, x2 = 0.001647 | 0.00451
318.15 K, x2 = 0.00247 | 0.00669
318.15 K, x2 = 0.003297 | 0.00863
318.15 K, x2 = 0.004125 | 0.0107
318.15 K, x2 = 0.004949 | 0.0128
318.15 K, x2 = 0.005774 | 0.0148
318.15 K, x2 = 0.006599 | 0.0167
328.15 K, x2 = 0.000874 | 0.00273
328.15 K, x2 = 0.001747 | 0.00529
328.15 K, x2 = 0.002618 | 0.00766
328.15 K, x2 = 0.003488 | 0.0101
328.15 K, x2 = 0.004357 | 0.0126
328.15 K, x2 = 0.005223 | 0.015
328.15 K, x2 = 0.006089 | 0.0174
328.15 K, x2 = 0.006952 | 0.0198

CCCCCCC [heptane] + CCO
298.15 K
Settings | excess molar enthalpy [kcal/mol]
x1 = 0.00013 | 0.0001
x1 = 0.000261 | 0.000201
x1 = 0.000392 | 0.000304
x1 = 0.000524 | 0.000402
x1 = 0.000655 | 0.00049
x1 = 0.000787 | 0.000588
x1 = 0.000919 | 0.000679
x1 = 0.001051 | 0.000767
x1 = 0.001183 | 0.000865
x1 = 0.001314 | 0.000954
x1 = 0.001445 | 0.00105
x1 = 0.001577 | 0.00114
x2 = 0.000794 | 0.00457
x2 = 0.001594 | 0.0088
x2 = 0.002391 | 0.0129
x2 = 0.003191 | 0.0168
x2 = 0.003992 | 0.0205
x2 = 0.00479 | 0.0239
x2 = 0.005589 | 0.027
x2 = 0.006387 | 0.0299
x2 = 0.007185 | 0.0325
x2 = 0.007976 | 0.0349
x2 = 0.008768 | 0.0371
x2 = 0.009558 | 0.0391
